Test results from BindingDB's records for patent US11648254 (Kumquat Biosciences, 2023).
pIC50: −log10 of the molar value.

Biological target: T1, Son of sevenless homolog 1 (Homo sapiens, UniProt Q07889)
T1 sequence (Q07889 whole entry): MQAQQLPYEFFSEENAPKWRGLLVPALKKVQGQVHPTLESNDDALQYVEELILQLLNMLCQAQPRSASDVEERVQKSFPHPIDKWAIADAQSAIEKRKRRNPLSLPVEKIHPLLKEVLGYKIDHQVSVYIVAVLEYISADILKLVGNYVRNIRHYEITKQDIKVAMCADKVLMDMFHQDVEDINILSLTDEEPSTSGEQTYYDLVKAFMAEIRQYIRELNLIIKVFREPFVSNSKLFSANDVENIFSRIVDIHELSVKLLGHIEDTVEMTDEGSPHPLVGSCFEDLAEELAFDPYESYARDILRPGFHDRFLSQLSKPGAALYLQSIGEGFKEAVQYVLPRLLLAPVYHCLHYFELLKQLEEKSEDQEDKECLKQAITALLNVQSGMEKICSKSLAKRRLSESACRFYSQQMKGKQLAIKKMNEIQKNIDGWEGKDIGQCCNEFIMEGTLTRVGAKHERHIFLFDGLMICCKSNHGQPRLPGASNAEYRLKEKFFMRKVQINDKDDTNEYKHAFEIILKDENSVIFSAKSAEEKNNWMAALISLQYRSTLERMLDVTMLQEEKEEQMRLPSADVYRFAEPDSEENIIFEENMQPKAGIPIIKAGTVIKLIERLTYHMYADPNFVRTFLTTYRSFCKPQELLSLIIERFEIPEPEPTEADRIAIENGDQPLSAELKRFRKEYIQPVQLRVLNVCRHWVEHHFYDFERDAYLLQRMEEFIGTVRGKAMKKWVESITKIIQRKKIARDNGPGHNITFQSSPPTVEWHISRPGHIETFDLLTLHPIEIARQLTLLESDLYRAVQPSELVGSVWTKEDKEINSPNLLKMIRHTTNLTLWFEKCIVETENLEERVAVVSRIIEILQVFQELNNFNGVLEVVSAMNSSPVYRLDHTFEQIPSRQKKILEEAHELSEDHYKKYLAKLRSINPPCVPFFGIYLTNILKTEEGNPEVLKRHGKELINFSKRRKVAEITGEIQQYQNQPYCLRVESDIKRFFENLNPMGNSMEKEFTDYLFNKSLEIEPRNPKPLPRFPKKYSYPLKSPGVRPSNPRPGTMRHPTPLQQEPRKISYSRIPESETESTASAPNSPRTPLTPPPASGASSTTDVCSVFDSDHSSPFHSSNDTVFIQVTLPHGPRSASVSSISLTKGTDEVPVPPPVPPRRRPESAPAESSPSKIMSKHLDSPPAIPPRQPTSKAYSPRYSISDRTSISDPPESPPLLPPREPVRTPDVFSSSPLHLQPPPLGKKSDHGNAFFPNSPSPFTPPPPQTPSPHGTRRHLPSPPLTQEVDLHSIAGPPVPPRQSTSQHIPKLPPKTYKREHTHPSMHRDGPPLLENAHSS
Assay: Ras-SOS Interaction Assay
Excerpt: The ability of any compound of the present disclosure to reduce a Ras protein signaling output by, e.g., interfering or disrupting interaction (or binding) between SOS1 and a Ras protein can be assessed in vitro. For example, the equilibrium interaction of human SOS1 (hSOS1) with human wildtype Kras or K-Ras mutant (e.g., hK-Ras G12C mutant, or hK-RasG12C) can be assessed as a proxy or an indication for a subject compound's ability to inhibit SOS. Detection of such interaction is achieved by measuring homogenous time-resolved fluorescence resonance energy transfer (HTRF) from (i) a fluorescence resonance energy transfer (FRET) donor (e.g., antiGST-Europium) that is bound to GST-tagged K-RasG12C to (ii) a FRET acceptor (e.g., anti-6His-XL665) bound to a His-tagged hSOS1. […] A Ras working solution is prepared in assay buffer containing typically 10 nM of the protein construct (e.g., GST-tagged hK-RasG12C) and 2 nM of the FRET donor (e.g., antiGST-Eu(K) from Cisbio, France). A SOS1 working solution is prepared in assay buffer containing typically 10 nM of the protein construct (e.g., His-hSOS1) and 10 nM of the FRET acceptor (e.g., anti-6His-XL665 from Cisbio, France). An inhibitor control solution is prepared in assay buffer containing 10 nM of the FRET acceptor without the SOS1 protein. A fixed reaction mixture with or without test compound is transferred into a 384-well plate. Ras working solution is added to all wells of the test plate. SOS1 working solution is added to all wells except for those that are subsequently filled the inhibitor control solution.

pIC50 | Structure (SMILES)
> 7.00 | COc1nc2nc(C)nc(N[C@H](C)c3cccc(C(F)F)c3F)c2cc1C1CCN(C(=O)NC2COC2)CC1 [US11648254, Compound 116]
> 7.00 | COCCOc1nc2nc(C)nc(N[C@H](C)c3cccc(C(F)F)c3F)c2cc1C1(C#N)CC1 [US11648254, Compound 151]
> 7.00 | COc1nc2nc(C)nc(N[C@H](C)c3cccc(C(F)(F)C4CCCO4)c3F)c2cc1C1CCS(=O)(=O)CC1 (some centres not stated) [US11648254, Compound 148]
> 7.00 | COc1nc2nc(C)nc(N[C@H](C)c3cccc(C(F)F)c3F)c2cc1[C@H]1C[C@@H](NC(=O)C2COC2)C1 [US11648254, Compound 125]
> 7.00 | COc1nc2nc(C)nc(N[C@H](C)c3cccc(C(F)(F)C4CN(C)C4)c3)c2cc1N1CCS(=O)(=O)CC1 [US11648254, Compound 272]
> 7.00 | COc1nc2nc(C)nc(N[C@H](C)c3cccc(C(F)(F)C4CCN(C(C)C)CC4)c3F)c2cc1C1(C#N)CC1 [US11648254, Compound 377]
> 7.00 | COc1nc2ncnc(N[C@H](C)c3cccc(C(F)(F)F)c3C)c2cc1C1CCS(=O)(=O)CC1 [US11648254, Compound 373]
> 7.00 | Cc1nc(N[C@H](C)c2cccc(C(F)F)c2F)c2cc(S(=O)(=O)C3CCN(C)CC3)c(Cl)nc2n1 [US11648254, Compound 132]
> 7.00 | COc1nc2ncnc(N[C@H](C)c3cccc(C(F)(F)F)c3C)c2cc1C1CCN(C2CCOCC2)CC1 [US11648254, Compound 374]
> 7.00 | COc1nc2nc(C)nc(N[C@H](C)c3cccc(C(F)(F)F)c3C)c2cc1C1CCS(=O)(=O)CC1 [US11648254, Compound 118]
> 7.00 | Cc1nc(N[C@H](C)c2cccc(C(F)F)c2F)c2cc(C3(C#N)CC3)c(O[C@H]3CCOC3)nc2n1 [US11648254, Compound 297]
> 7.00 | COc1nc2nc(C)nc(N[C@H](C)c3cccc(C(C)(F)F)c3F)c2cc1C1CCS(=O)(=O)CC1 [US11648254, Compound 150]
